Experimental data published in the NIST ThermoML archive (doi:10.1007/s10765-013-1492-1).
Several values for one entry are separate records, joined by “and”; a condition that tells them apart may be missing. Identical values can stand only once.

Tests used:
[1] = xn = mol fraction of the nth substance listed; settings: 101 kPa, Liquid
[2] = 101 kPa, Liquid

O=Cc1ccccc1 [benzaldehyde] + Clc1ccccc1
[1]
Settings | mass density, 303.15 K [kg/m3] | mass density, 308.15 K [kg/m3] | mass density, 313.15 K [kg/m3] | speed of sound, 303.15 K [m/s] | speed of sound, 308.15 K [m/s] | speed of sound, 313.15 K [m/s] | viscosity, 303.15 K [mPa·s] | viscosity, 308.15 K [mPa·s] | viscosity, 313.15 K [mPa·s]
x1 = 0.1006 | 1084.3 | 1082 | 1077.9 | 1265 | 1241 | 1235 | 0.7984 | 0.7805 | 0.7641
x1 = 0.2011 | 1081.4 | 1079.1 | 1075 | 1282 | 1258 | 1249 | 0.8332 | 0.8123 | 0.7949
x1 = 0.3015 | 1077.2 | 1075 | 1070.2 | 1299 | 1277 | 1267 | 0.8814 | 0.8532 | 0.8407
x1 = 0.4017 | 1071.9 | 1070.3 | 1065.2 | 1318 | 1296 | 1286 | 0.9297 | 0.905 | 0.8891
x1 = 0.5017 | 1066.5 | 1065.2 | 1059.9 | 1337 | 1316 | 1305 | 0.9803 | 0.9559 | 0.9425
x1 = 0.6017 | 1060.9 | 1059.8 | 1054.6 | 1356 | 1337 | 1325 | 1.029 | 1.009 | 0.9925
x1 = 0.7015 | 1055 | 1053.8 | 1049.1 | 1376 | 1358 | 1345 | 1.082 | 1.061 | 1.045
x1 = 0.8011 | 1048.5 | 1047.5 | 1043.3 | 1397 | 1380 | 1366 | 1.134 | 1.118 | 1.099
x1 = 0.9006 | 1041.6 | 1040.8 | 1036.9 | 1418 | 1403 | 1387 | 1.196 | 1.184 | 1.163
x1 = 1 | 1031.7 | 1031.3 | 1028 | 1452 | 1428 | 1413 | 1.32 | 1.249 | 1.242

Clc1ccccc1 [chlorobenzene] + O=Cc1ccccc1
[1], x2 = 0
Settings | mass density [kg/m3] | speed of sound [m/s] | viscosity [mPa·s]
303.15 K | 1086.6 | 1249 | 0.7147
308.15 K | 1085.1 | 1224 | 0.7469
313.15 K | 1081.1 | 1220 | 0.7383

O=[N+]([O-])c1ccccc1 [nitrobenzene]
[2]
Settings | mass density [kg/m3] | speed of sound [m/s] | viscosity [mPa·s]
303.15 K | 1189.6 | 1407 | 1.618
308.15 K | 1189.4 | 1361 | 1.618
313.15 K | 1187.2 | 1326 | 1.61

O=Cc1ccccc1 [benzaldehyde] + O=[N+]([O-])c1ccccc1
[1]
Settings | mass density, 303.15 K [kg/m3] | mass density, 308.15 K [kg/m3] | mass density, 313.15 K [kg/m3] | speed of sound, 303.15 K [m/s] | speed of sound, 308.15 K [m/s] | speed of sound, 313.15 K [m/s] | viscosity, 303.15 K [mPa·s] | viscosity, 308.15 K [mPa·s] | viscosity, 313.15 K [mPa·s]
x1 = 0.1018 | 1170.8 | 1170.6 | 1166.6 | 1409.5 | 1366.2 | 1332.4 | 1.556 | 1.546 | 1.524
x1 = 0.2032 | 1160.2 | 1159.9 | 1150.6 | 1412 | 1372 | 1340 | 1.534 | 1.504 | 1.472
x1 = 0.3043 | 1143 | 1142.6 | 1142.4 | 1414.6 | 1378 | 1348 | 1.495 | 1.456 | 1.45
x1 = 0.4049 | 1130.6 | 1129.8 | 1121.9 | 1417.5 | 1384 | 1356.2 | 1.455 | 1.429 | 1.402
x1 = 0.5051 | 1117.6 | 1117 | 1110.9 | 1420.6 | 1390.6 | 1364.8 | 1.427 | 1.411 | 1.383
x1 = 0.6049 | 1102.6 | 1101.8 | 1101.1 | 1424.5 | 1397.8 | 1374 | 1.405 | 1.389 | 1.371
x1 = 0.7042 | 1083.9 | 1082.7 | 1080.7 | 1428.3 | 1405 | 1383 | 1.359 | 1.354 | 1.343
x1 = 0.8032 | 1065.2 | 1065 | 1064.5 | 1432.5 | 1412.5 | 1392.3 | 1.333 | 1.316 | 1.307
x1 = 0.9018 | 1050.9 | 1048.8 | 1043.8 | 1437 | 1420 | 1401.7 | 1.295 | 1.282 | 1.267
x1 = 1 | 1035.7 | 1031.3 | 1028 | 1452 | 1428.8 | 1413 | 1.32 | 1.249 | 1.241

O=[N+]([O-])c1ccccc1 [nitrobenzene] + O=Cc1ccccc1
[1], x2 = 0
Settings | mass density [kg/m3] | speed of sound [m/s] | viscosity [mPa·s]
303.15 K | 1189.6 | 1407 | 1.618
308.15 K | 1189.4 | 1361 | 1.618
313.15 K | 1187.2 | 1326 | 1.61

Clc1ccccc1 [chlorobenzene]
[2]
Settings | mass density [kg/m3] | speed of sound [m/s] | viscosity [mPa·s]
303.15 K | 1086.6 | 1249 | 0.7147
308.15 K | 1085.1 | 1224 | 0.7469
313.15 K | 1081.1 | 1220 | 0.7383

O=Cc1ccccc1 [benzaldehyde]
[2]
Settings | mass density | speed of sound | viscosity
303.15 K | 1031.7 kg/m3 and 1035.7 kg/m3 | 1452 m/s | 1.32 mPa·s
308.15 K | 1031.3 kg/m3 | 1428 m/s and 1428.8 m/s | 1.249 mPa·s and 1.249 mPa·s
313.15 K | 1028 kg/m3 | 1413 m/s | 1.242 mPa·s and 1.241 mPa·s
